Here are results for nine compounds from patent US10828305B2 (SHANGHAI PHARMACEUTICALS HOLDING CO., LTD., priority 2016, dated 2020).

Assay [1] concerns the target ErbB2 kinase (Homo sapiens, UniProt P04626). The assay is described as follows: Enzymatic experiment on ErbB2 (HTRF kinEASE-TK). Format: biochemical. The settings on record: ATP 4 μM; read-out: Kinase IC50 (nM) in vitro ErbB2. Summed up: (§1)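 HTRF kinEASE-TK with biotinylated TK substrate in HEPES pH 7.0 buffer containing MnCl2, MgCl2 and DTT; ErbB2 at 0.06 ng/μl with 4 μM ATP, EGFR at 0.06 units/μl with 1.65 μM ATP, 30 min at room temperature after 5 min enzyme/substrate–compound preincubation. Ten-point 3-fold dilutions; Eu antibody/SA-XL665 detection, 665/620 ratio.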
Background: TR-FRET usually uses a lanthanide donor and a delayed reading to cut background.

Assay [2] has as its target EGFR kinase (Homo sapiens, UniProt P00533). The assay is described as follows: Enzymatic experiment on EGFR (HTRF kinEASE-TK). Format: biochemical. Conditions: ATP 1.65 μM; read-out: Kinase IC50 (nM) in vitro EGFR. Summed up: as §1
The test system of assay [3] is N87. The assay is described as follows: Proliferation inhibition assay in vitro, N87 (CellTiter-Glo). Conditions: Homo sapiens; 72 hours; read-out: IC50(nM) cell N87. The format is cell-based. The essentials: (§2)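 Cells were seeded at 8.8×10^4 cells/mL for BT-474 or 6.6×10^4 cells/mL for N87 and grown overnight. Compound was added at 9 concentrations in duplicate for 72 h at 37 °C, 5% CO2. Viability was measured by CellTiter-Glo.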
(Cellular ATP, detected with luciferase, serves as a proxy for viable cell number.)

The test system of assay [4] is BT-474. The assay is described as follows: Proliferation inhibition assay in vitro, BT-474 (CellTiter-Glo). Format: cell-based. The settings on record: Homo sapiens, 72 hours, read-out: IC50(nM) cell BT-474. The essentials:
as §2

Chain of ErbB2 kinase (P04626 23-1255): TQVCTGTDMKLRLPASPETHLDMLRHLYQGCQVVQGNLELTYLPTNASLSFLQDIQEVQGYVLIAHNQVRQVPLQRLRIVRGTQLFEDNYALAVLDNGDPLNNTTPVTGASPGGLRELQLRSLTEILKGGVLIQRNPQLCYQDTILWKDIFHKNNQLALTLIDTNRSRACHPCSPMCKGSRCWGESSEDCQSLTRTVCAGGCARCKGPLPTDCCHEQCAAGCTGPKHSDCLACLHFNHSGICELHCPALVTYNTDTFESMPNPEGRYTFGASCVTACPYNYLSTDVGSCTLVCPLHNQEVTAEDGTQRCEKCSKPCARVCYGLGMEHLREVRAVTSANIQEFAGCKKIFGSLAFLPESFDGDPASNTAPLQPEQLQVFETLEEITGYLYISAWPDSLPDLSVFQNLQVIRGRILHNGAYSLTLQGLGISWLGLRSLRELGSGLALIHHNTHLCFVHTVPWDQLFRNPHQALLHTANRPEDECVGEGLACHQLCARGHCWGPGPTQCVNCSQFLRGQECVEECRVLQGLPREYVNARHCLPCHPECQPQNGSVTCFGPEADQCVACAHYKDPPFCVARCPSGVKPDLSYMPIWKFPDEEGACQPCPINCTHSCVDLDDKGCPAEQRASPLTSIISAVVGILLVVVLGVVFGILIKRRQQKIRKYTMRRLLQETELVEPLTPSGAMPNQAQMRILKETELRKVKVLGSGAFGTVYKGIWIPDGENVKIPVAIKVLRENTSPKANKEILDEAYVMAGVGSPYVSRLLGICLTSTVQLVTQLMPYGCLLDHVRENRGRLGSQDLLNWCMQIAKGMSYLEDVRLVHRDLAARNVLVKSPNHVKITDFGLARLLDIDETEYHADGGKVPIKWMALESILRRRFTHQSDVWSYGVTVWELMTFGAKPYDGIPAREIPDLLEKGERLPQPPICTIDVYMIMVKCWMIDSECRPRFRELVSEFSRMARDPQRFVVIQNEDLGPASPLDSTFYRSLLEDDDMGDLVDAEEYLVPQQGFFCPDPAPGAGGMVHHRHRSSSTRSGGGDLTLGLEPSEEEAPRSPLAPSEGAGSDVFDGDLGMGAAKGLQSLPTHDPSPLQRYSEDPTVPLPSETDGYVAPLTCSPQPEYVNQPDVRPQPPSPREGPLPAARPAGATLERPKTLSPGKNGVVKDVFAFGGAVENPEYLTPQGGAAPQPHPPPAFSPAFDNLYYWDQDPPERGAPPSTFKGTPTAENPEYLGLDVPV
Chain of EGFR kinase (P00533 25-1210): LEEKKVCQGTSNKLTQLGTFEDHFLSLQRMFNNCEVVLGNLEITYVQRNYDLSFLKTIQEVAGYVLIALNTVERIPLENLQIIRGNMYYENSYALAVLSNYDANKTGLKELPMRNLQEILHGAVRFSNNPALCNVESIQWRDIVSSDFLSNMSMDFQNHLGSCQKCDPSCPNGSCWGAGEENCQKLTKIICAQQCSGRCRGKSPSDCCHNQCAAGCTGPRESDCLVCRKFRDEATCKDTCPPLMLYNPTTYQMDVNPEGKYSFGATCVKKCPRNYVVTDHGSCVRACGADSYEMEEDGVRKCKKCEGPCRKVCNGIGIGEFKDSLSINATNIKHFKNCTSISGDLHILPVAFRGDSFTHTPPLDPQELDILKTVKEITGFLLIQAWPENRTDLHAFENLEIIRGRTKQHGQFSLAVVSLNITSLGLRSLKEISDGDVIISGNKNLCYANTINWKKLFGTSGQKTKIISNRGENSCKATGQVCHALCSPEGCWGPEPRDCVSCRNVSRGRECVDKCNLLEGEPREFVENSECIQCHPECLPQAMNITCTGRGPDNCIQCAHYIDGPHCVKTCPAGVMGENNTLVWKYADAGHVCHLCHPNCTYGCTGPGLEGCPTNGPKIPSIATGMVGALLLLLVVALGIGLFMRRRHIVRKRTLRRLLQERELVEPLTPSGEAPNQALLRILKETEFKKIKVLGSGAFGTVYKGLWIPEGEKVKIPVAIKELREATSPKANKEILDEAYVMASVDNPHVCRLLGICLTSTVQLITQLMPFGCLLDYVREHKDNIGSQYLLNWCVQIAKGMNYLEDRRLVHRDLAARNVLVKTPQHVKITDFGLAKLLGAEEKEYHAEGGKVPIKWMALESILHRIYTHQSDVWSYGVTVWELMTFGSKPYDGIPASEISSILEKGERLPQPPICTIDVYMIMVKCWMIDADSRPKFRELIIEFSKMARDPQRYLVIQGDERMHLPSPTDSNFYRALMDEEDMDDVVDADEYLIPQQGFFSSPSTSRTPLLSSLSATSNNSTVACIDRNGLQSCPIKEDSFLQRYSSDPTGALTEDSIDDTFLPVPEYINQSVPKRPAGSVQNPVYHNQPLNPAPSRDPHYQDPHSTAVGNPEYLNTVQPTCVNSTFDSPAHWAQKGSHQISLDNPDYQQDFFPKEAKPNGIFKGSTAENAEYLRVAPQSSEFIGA

By IC50 is commonly meant the point on the concentration scale where inhibition reaches its midpoint. For the compound `Cc1cc(Nc2ncnc3ccc(-c4cccc(CNCCS(C)(=O)=O)c4)cc23)ccc1Oc1cc2nncn2cn1` [Embodiment 68], the IC50 came out at 2.2 nM in assay [1], 5.4 nM in assay [2], 52 nM in assay [3] and 38.7 nM in assay [4].

For the compound `Cc1cc(NC(=O)Nc2ccc3ncnc(Nc4ccc(Oc5cc6nncn6cn5)c(C)c4)c3c2)n[nH]1` [Embodiment 70, 1-(4-((4-([1,2,4]triazolo[4,3-c]pyrimidin-7-yloxy)-3-methylphenyl)amino)quinazolin-6-yl)-3-(5-methyl-1H-pyrazol-3-yl)urea], the IC50 in assay [1] is 3.3 nM; in assay [2], 73.4 nM; in assay [3], 852 nM; in assay [4], 172 nM.

Take `C=C(F)C(=O)Nc1cccc(-c2ccc3ncnc(Nc4ccc(Oc5cc6nncn6cn5)c(C)c4)c3c2)c1` [Embodiment 71, N-(3-(4-((4-([1,2,4]triazolo[4,3-c]pyrimidin-7-yloxy)-3-methylphenyl)amino)quinazolin-6-yl)phenyl)-2-fluoroacrylamide]: the IC50 in assay [1] turned out to be 3.5 nM; in assay [2] it was 20.7 nM; in assay [3] it was 66.4 nM; in assay [4] it was 42.7 nM.

With `Cc1cc(Nc2ncnc3ccc(NC4=NC5(CC5)CO4)cc23)ccc1Oc1cc2nncn2cn1` [Embodiment 72, N′-(4-([1,2,4]triazolo[4,3-c]pyrimidin-7-yloxy)-3-methylphenyl)-N^6-(6-oxa-4-azaspiro[2.4]hept-4-en-5-yl)quinazolin-4,6-diamine], the IC50 in assay [1] amounted to 0.9 nM; in assay [2] it was 4.3 nM; in assay [3] it was 34.2 nM; in assay [4] it was 30 nM.

Take `Cc1cc(Nc2ncnc3ccc(NC(=O)Nc4cc(C)n(C)n4)cc23)ccc1Oc1cc2nncn2cn1` [Embodiment 73, 1-(4-((4-([1,2,4]triazolo[4,3-c]pyrimidin-7-yloxy)-3-methylphenyl)amino)quinazolin-6-yl)-3-(1,5-dimethyl-1H-pyrazol-3-yl)urea]: the IC50 in assay [1] was 4.21 nM; in assay [2], 34.9 nM; in assay [3], 162 nM; in assay [4], 139 nM.

With `Cc1coc(NC(=O)Nc2ccc3ncnc(Nc4ccc(Oc5cc6nncn6cn5)c(C)c4)c3c2)n1` [Embodiment 74, 1-(4-((4-([1,2,4]triazolo[4,3-c]pyrimidin-7-yloxy)-3-methylphenyl)amino)quinazolin-6-yl)-3-(4-methyloxazol-2-yl)urea], the IC50 in assay [1] worked out at 2.4 nM; in assay [2] it was 43.3 nM; in assay [3], 106 nM; in assay [4], 85.8 nM.

In the case of `C=CC(=O)Nc1cccc(-c2ccc3ncnc(Nc4ccc(Oc5cc6nncn6cn5)c(C)c4)c3c2)c1` [Embodiment 75, N-(3-(4-((4-([1,2,4]triazolo[4,3-c]pyrimidin-7-yloxy)-3-methylphenyl)amino)quinazolin-6-yl)phenyl)acrylamide], the IC50 in assay [1] was 1.34 nM; in assay [2], 19.2 nM; in assay [3], 15 nM; in assay [4], 9 nM.

Regarding `Cc1cc(Nc2ncnc3ccc(-c4cccc(NC(=O)/C=C/CN(C)C)c4)cc23)ccc1Oc1cc2nncn2cn1` [Embodiment 76, (E)-N-(3-(4-((4-([1,2,4]triazolo[4,3-c]pyrimidin-7-yloxy)-3-methylphenyl)amino)quinazolin-6-yl)phenyl)-4-(dimethylamino)but-2-enamide], the IC50 in assay [1] turned out to be 4.9 nM; in assay [2], 82.2 nM; in assay [3] it was 42.8 nM; in assay [4] it was 27.9 nM.

`Cc1cc(Nc2ncnc3ccc(-c4cccc(F)c4)cc23)ccc1Oc1cc2nncn2cn1` [Embodiment 77, N-(4-([1,2,4]triazolo[4,3-c]pyrimidin-7-yloxy)-3-methylphenyl)-6-(3-fluorophenyl)-4-aminoquinazoline]: the IC50 in assay [1] stood at 5.03 nM; in assay [2] it was 23.6 nM; in assay [3], 509 nM; in assay [4], 254 nM.
